Legend:
velvetleaf = experiment: Test B pre/postemergence velvetleaf; type: in vivo, Abutilon theophrasti
Procedure, shortened: (§1)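 Herbicidal effect was estimated by eye on a ten-point control scale after plants spent twelve to sixteen days in a greenhouse following soil or foliar treatment. Foliar sprays targeted plants at one to four leaves; all doses were formulated in a non-phytotoxic solvent with surfactant.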

bamyardgrass = experiment: Test B flood test barnyardgrass; type: in vivo, Echinochloa crus-galli
Procedure, shortened: (§2)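 Flood test on plants grown to the 2-leaf stage; treated plants kept in greenhouse twelve to sixteen days, then visually rated against controls on a 0 (no effect) to 10 (complete control) scale.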

purple nutsedge = experiment: Test B pre/postemergence purple nutsedge; type: in vivo, Cyperus rotundus
Procedure, shortened: as §1

bedstraw = experiment: Test B pre/postemergence bedstraw; type: in vivo, Galium aparine
Procedure, shortened: as §1

sugar beet = experiment: Test B pre/postemergence sugar beet; type: in vivo, Beta vulgaris
Procedure, shortened: as §1

morningglory = experiment: Test B pre/postemergence morningglory; type: in vivo, Ipomoea hederacea
Procedure, shortened: as §1

giant foxtail = experiment: Test B pre/postemergence giant foxtail; type: in vivo, Setaria faberii
Procedure, shortened: as §1

wheat = experiment: Test B pre/postemergence wheat; type: in vivo, Triticum aestivum
Procedure, shortened: as §1

duck salad = experiment: Test B flood test duck salad; type: in vivo, Heteranthera limosa
Procedure, shortened: as §2

soybean = experiment: Test B pre/postemergence soybean; type: in vivo, Glycine max
Procedure, shortened: as §1

pigweed = experiment: Test B pre/postemergence pigweed; type: in vivo, Amaranthus retroflexus
Procedure, shortened: as §1

wild oat = experiment: Test B pre/postemergence wild oat; type: in vivo, Avena fatua
Procedure, shortened: as §1

blackgrass = experiment: Test B pre/postemergence blackgrass; type: in vivo, Alopecurus myosuroides
Procedure, shortened: as §1

rape = experiment: Test B pre/postemergence rape; type: in vivo, Brassica napus
Procedure, shortened: as §1

rice = experiment: Test B flood test rice; type: in vivo, Oryza sativa
Procedure, shortened: as §2

smallflower flatsedge = experiment: Test B flood test smallflower flatsedge; type: in vivo, Cyperus difformis
Procedure, shortened: as §2

[1] = Preemergence, Rate 62 g/ha, scale of 0 to 10 where 0 is no effect and 10 is complete control
[2] = Preemergence, Rate 250 g/ha, scale of 0 to 10 where 0 is no effect and 10 is complete control
[3] = Preemergence, Rate 500 g/ha, scale of 0 to 10 where 0 is no effect and 10 is complete control
[4] = Rate 62 g/ha, Postemergence, scale 0 to 10 (0 no effect, 10 complete control)
[5] = Rate 125 g/ha, Postemergence, scale of 0 to 10 where 0 is no effect and 10 is complete control
[6] = Rate 125 g/ha, Preemergence, scale of 0 to 10 where 0 is no effect and 10 is complete control
[7] = Rate 250 g/ha, Postemergence, scale of 0 to 10 where 0 is no effect and 10 is complete control
[8] = Rate 500 g/ha, Postemergence, scale 0 to 10, 0 no effect, 10 complete control
[9] = Rate 62 g/ha, headed Pre-emergence (flood test species), scale 0 to 10 (0 no effect, 10 complete control)
[10] = Rate 125 g/ha, Pre-emergence, flood test species, scale 0 to 10 where 0 is no effect and 10 is complete control
[11] = Rate 250 g/ha, Pre-emergence, flood-test species, scale 0 to 10, 0 is no effect, 10 is complete control
[12] = Rate 500 g/ha, Pre-emergence, flood test species, scale 0 to 10 (0 no effect, 10 complete control)

SMILES: CC(C)N(C(=O)n1oc(=O)n(C2CCCC2)c1=O)c1ccccc1 [Compound 283]
- Velvetleaf plant response rating (velvetleaf; [1]): 0
- Velvetleaf plant response rating (velvetleaf; [2]): 5
- Plant response rating, Velvetleaf (velvetleaf; [3]): 7
- Velvetleaf plant response rating (velvetleaf; [4]): 0
- Velvetleaf plant response rating (velvetleaf; [5]): 0
- Velvetleaf plant response rating (velvetleaf; [6]): 2
- Plant response rating, Velvetleaf (velvetleaf; [7]): 1
- Velvetleaf plant response rating (velvetleaf; [8]): 3
- Barnyardgrass plant response rating (bamyardgrass; [9]): 0
- Barnyardgrass plant response rating (bamyardgrass; [10]): 3
- Barnyardgrass plant response rating (bamyardgrass; [11]): 6
- Barnyardgrass plant response rating (bamyardgrass; [12]): 6
- Nutsedge plant response rating (purple nutsedge; [1]): 0
- Nutsedge plant response rating (purple nutsedge; [2]): 0
- Plant response rating, Nutsedge (purple nutsedge; [3]): 0
- Nutsedge plant response rating (purple nutsedge; [4]): 0
- Nutsedge plant response rating (purple nutsedge; [5]): 0
- Nutsedge plant response rating (purple nutsedge; [6]): 0
- Plant response rating, Nutsedge (purple nutsedge; [7]): 0
- Nutsedge plant response rating (purple nutsedge; [8]): 0
- Bedstraw plant response rating (bedstraw; [1]): 0
- Bedstraw plant response rating (bedstraw; [2]): 1
- Plant response rating, Bedstraw (bedstraw; [3]): 9
- Bedstraw plant response rating (bedstraw; [4]): 0
- Bedstraw plant response rating (bedstraw; [5]): 1
- Bedstraw plant response rating (bedstraw; [6]): 0
- Plant response rating, Bedstraw (bedstraw; [7]): 5
- Bedstraw plant response rating (bedstraw; [8]): 6
- Sugarbeets plant response rating (sugar beet; [1]): 0
- Sugarbeets plant response rating (sugar beet; [2]): 2
- Plant response rating, Sugarbeets (sugar beet; [3]): 5
- Sugarbeets plant response rating (sugar beet; [4]): 0
- Sugarbeets plant response rating (sugar beet; [5]): 2
- Sugarbeets plant response rating (sugar beet; [6]): 0
- Plant response rating, Sugarbeets (sugar beet; [7]): 2
- Sugarbeets plant response rating (sugar beet; [8]): 2
- Morningglory plant response rating (morningglory; [1]): 0
- Morningglory plant response rating (morningglory; [2]): 0
- Plant response rating, Morningglory (morningglory; [3]): 0
- Morningglory plant response rating (morningglory; [4]): 8
- Morningglory plant response rating (morningglory; [5]): 9
- Morningglory plant response rating (morningglory; [6]): 0
- Plant response rating, Morningglory (morningglory; [7]): 9
- Morningglory plant response rating (morningglory; [8]): 10
- Giant foxtail plant response rating (giant foxtail; [1]): 8
- Giant foxtail plant response rating (giant foxtail; [2]): 10
- Plant response rating, Giant foxtail (giant foxtail; [3]): 10
- Giant foxtail plant response rating (giant foxtail; [4]): 0
- Giant foxtail plant response rating (giant foxtail; [5]): 3
- Giant foxtail plant response rating (giant foxtail; [6]): 9
- Plant response rating, Giant foxtail (giant foxtail; [7]): 4
- Giant foxtail plant response rating (giant foxtail; [8]): 7
- Wheat plant response rating (wheat; [1]): 0
- Wheat plant response rating (wheat; [2]): 1
- Plant response rating, Wheat (wheat; [3]): 6
- Wheat plant response rating (wheat; [4]): 0
- Wheat plant response rating (wheat; [5]): 0
- Wheat plant response rating (wheat; [6]): 0
- Plant response rating, Wheat (wheat; [7]): 0
- Wheat plant response rating (wheat; [8]): 0
- Ducksalad plant response rating (duck salad; [9]): 0
- Ducksalad plant response rating (duck salad; [10]): 0
- Ducksalad plant response rating (duck salad; [11]): 0
- Ducksalad plant response rating (duck salad; [12]): 0
- Soybean plant response rating (soybean; [1]): 0
- Soybean plant response rating (soybean; [2]): 0
- Plant response rating, Soybean (soybean; [3]): 0
- Soybean plant response rating (soybean; [4]): 4
- Soybean plant response rating (soybean; [5]): 4
- Soybean plant response rating (soybean; [6]): 0
- Plant response rating, Soybean (soybean; [7]): 5
- Soybean plant response rating (soybean; [8]): 7
- Redroot pigweed plant response rating (pigweed; [1]): 2
- Redroot pigweed plant response rating (pigweed; [2]): 10
- Plant response rating, Redroot pigweed (pigweed; [3]): 10
- Redroot pigweed plant response rating (pigweed; [4]): 4
- Redroot pigweed plant response rating (pigweed; [5]): 4
- Redroot pigweed plant response rating (pigweed; [6]): 6
- Plant response rating, Redroot pigweed (pigweed; [7]): 5
- Redroot pigweed plant response rating (pigweed; [8]): 7
- Wild oats plant response rating (wild oat; [1]): 0
- Wild oats plant response rating (wild oat; [2]): 4
- Plant response rating, Wild oats (wild oat; [3]): 7
- Wild oats plant response rating (wild oat; [4]): 0
- Wild oats plant response rating (wild oat; [5]): 0
- Plant response rating, Wild oats (wild oat; [7]): 0
- Wild oats plant response rating (wild oat; [8]): 0
- Blackgrass plant response rating (blackgrass; [1]): 7
- Blackgrass plant response rating (blackgrass; [2]): 9
- Plant response rating, Blackgrass (blackgrass; [3]): 10
- Blackgrass plant response rating (blackgrass; [4]): 2
- Blackgrass plant response rating (blackgrass; [5]): 6
- Blackgrass plant response rating (blackgrass; [6]): 8
- Plant response rating, Blackgrass (blackgrass; [7]): 7
- Blackgrass plant response rating (blackgrass; [8]): 7
- Rape plant response rating (rape; [1]): 0
- Rape plant response rating (rape; [2]): 2
- Plant response rating, Rape (rape; [3]): 8
- Rape plant response rating (rape; [4]): 2
- Rape plant response rating (rape; [5]): 3
- Plant response rating, Rape (rape; [7]): 4
- Rape plant response rating (rape; [8]): 7
- Rice plant response rating (rice; [9]): 0
- Rice plant response rating (rice; [10]): 0
- Rice plant response rating (rice; [11]): 0
- Rice plant response rating (rice; [12]): 1
- S. Flatsedge plant response rating (smallflower flatsedge; [9]): 0
- S. Flatsedge plant response rating (smallflower flatsedge; [10]): 0
- S. Flatsedge plant response rating (smallflower flatsedge; [11]): 0
- S. Flatsedge plant response rating (smallflower flatsedge; [12]): 5
